According to ChEMBL document CHEMBL4364310, “Design, synthesis and biological evaluation of novel α-aminophosphonate oxadiazoles via optimized iron triflate catalyzed reaction as apoptotic inducers” (Eur J Med Chem, 2019):

Assays:
HepG2 = test: Antiproliferative activity against human HepG2 cells assessed as reduction in cell viability incubated for 48 hrs by MTT assay; type: functional, cell-based; conditions: HepG2, 48 h
HCT-116 [1] = test: Antiproliferative activity against human HCT116 cells assessed as reduction in cell viability incubated for 48 hrs by MTT assay; type: functional, cell-based; conditions: HCT-116, 48 h
MCF7 = test: Antiproliferative activity against human MCF7 cells assessed as reduction in cell viability incubated for 48 hrs by MTT assay; type: functional, cell-based; conditions: MCF7, 48 h
FHC = test: Cytotoxicity against human FHC cells assessed as reduction in cell viability incubated for 48 hrs by MTT assay; type: cell-based
[2] = Selectivity index, ratio of IC50 for human FHC cells to IC50 for human HCT116 cells; type: toxicity; conditions: FHC cells and HCT116 cells, read-out: Ratio IC50
HCT-116 [3] = test: Induction of apoptosis in human HCT116 cells assessed as increase in caspase 3 level by ELISA relative to control; type: functional
HCT-116 [4] = test: Induction of apoptosis in human HCT116 cells assessed as increase in caspase 8 level by ELISA relative to control; type: functional
HCT-116 [5] = test: Induction of apoptosis in human HCT116 cells assessed as increase in caspase 9 level by ELISA relative to control; type: functional
HCT-116 [6] = test: Induction of apoptosis in human HCT116 cells assessed as increase in cytochrome C by ELISA relative to control; type: functional
HCT-116 [7] = test: Induction of apoptosis in human HCT116 cells assessed as increase in Bax level by ELISA relative to control; type: functional
HCT-116 [8] = test: Induction of apoptosis in human HCT116 cells assessed as decrease in Bcl 2 level by ELISA relative to control (reference value: 10.1 +/- 0.73 ng/ml); type: functional
HCT-116 [9] = test: Induction of apoptosis in human HCT116 cells assessed as early apoptotic cells incubated for 24 hrs by annexin V FITC and propidium iodide staining based flow cytometry (reference value: 0.9 %); type: functional
HCT-116 [10] = test: Induction of apoptosis in human HCT116 cells assessed as late apoptotic cells incubated for 24 hrs by annexin V FITC and propidium iodide staining based flow cytometry (reference value: 0.39 %); type: functional
HCT-116 [11] = test: Induction of apoptosis in human HCT116 cells assessed as necrotic cells incubated for 24 hrs by annexin V FITC and propidium iodide staining based flow cytometry (reference value: 0.46 %); type: functional
HCT-116 [12] = test: Induction of cell cycle arrest in human HCT116 cells assessed as accumulation in preG phase incubated for 24 hrs by annexin V FITC and propidium iodide staining based flow cytometry (reference value: 1.75 %); type: functional
HCT-116 [13] = test: Induction of cell cycle arrest in human HCT116 cells assessed as accumulation in G0/G1 phase incubated for 24 hrs by annexin V FITC and propidium iodide staining based flow cytometry (reference value: 46.72 %); type: functional
HCT-116 [14] = test: Induction of cell cycle arrest in human HCT116 cells assessed as accumulation in G2/M phase incubated for 24 hrs by annexin V FITC and propidium iodide staining based flow cytometry (reference value: 18.29 %); type: functional
HCT-116 [15] = test: Induction of cell cycle arrest in human HCT116 cells assessed as accumulation in S phase incubated for 24 hrs by annexin V FITC and propidium iodide staining based flow cytometry (reference value: 34.99 %); type: functional

Structure (SMILES)	IC50 (HepG2)	IC50 (HCT-116 [1])	IC50 (MCF7)	other results
CCOP(=O)(OCC)C(NNC(=O)CSc1nnc(-c2ccncc2)o1)c1ccccc1 (stereo unspecified)	23.5 µM	22.5 µM	99.1 µM	–
CCOP(=O)(OCC)C(NNC(=O)CSc1nnc(-c2ccncc2)o1)c1ccc(O)c(O)c1 (stereo unspecified)	27.3 µM	21.1 µM	63.4 µM	–
CCOP(=O)(OCC)C(NNC(=O)CSc1nnc(-c2ccncc2)o1)c1ccc(C)cc1 (stereo unspecified)	19.5 µM	17.6 µM	86.3 µM	–
CCOP(=O)(OCC)C(NNC(=O)CSc1nnc(-c2ccncc2)o1)c1ccc(O)cc1 (stereo unspecified)	14.8 µM	14.6 µM	52.9 µM	–
CCOP(=O)(OCC)C(NNC(=O)CSc1nnc(-c2ccncc2)o1)c1ccccc1Cl (stereo unspecified)	19.2 µM	9.2 µM	62.9 µM	IC50 (FHC): 35.9 µM; selectivity ratio [2]: 3.9; fold change (FC) (HCT-116 [3]): 7.78; fold change (FC) (HCT-116 [4]): 6.4; fold change (FC) (HCT-116 [5]): 11.61; fold change (FC) (HCT-116 [6]): 6.72; fold change (FC) (HCT-116 [7]): 6.18; Activity (HCT-116 [8]): 5.088 ng/mL; Activity (HCT-116 [9]): 7.26%; Activity (HCT-116 [10]): 15.69%; Activity (HCT-116 [11]): 3.28%; Activity (HCT-116 [12]): 26.23%; Activity (HCT-116 [13]): 24.91%; Activity (HCT-116 [14]): 46.33%; Activity (HCT-116 [15]): 28.76%
COc1cccc2c1C(=O)c1c(O)c3c(c(O)c1C2=O)C[C@@](O)(C(=O)CO)C[C@@H]3O[C@H]1C[C@H](N)[C@H](O)[C@H](C)O1 [DOXORUBICIN]	10.4 µM	9.4 µM	–	–
CCOP(=O)(OCC)C(NNC(=O)CSc1nnc(-c2ccncc2)o1)c1ccc(F)cc1 (stereo unspecified)	21.5 µM	31.3 µM	70.6 µM	–
CCOP(=O)(OCC)C(NNC(=O)CSc1nnc(-c2ccncc2)o1)c1ccc2ccccc2c1 (stereo unspecified)	25.8 µM	9.5 µM	57.3 µM	IC50 (FHC): 23.4 µM; selectivity ratio [2]: 2.46; fold change (FC) (HCT-116 [3]): 5.99; fold change (FC) (HCT-116 [4]): 3.64; fold change (FC) (HCT-116 [5]): 8.85; fold change (FC) (HCT-116 [6]): 5.69; fold change (FC) (HCT-116 [7]): 5.78; Activity (HCT-116 [8]): 5.945 ng/mL; Activity (HCT-116 [9]): 4.59%; Activity (HCT-116 [10]): 12.51%; Activity (HCT-116 [11]): 2.14%; Activity (HCT-116 [12]): 19.24%; Activity (HCT-116 [13]): 30.56%; Activity (HCT-116 [14]): 37.97%; Activity (HCT-116 [15]): 31.47%
CCOP(=O)(OCC)C(NNC(=O)CSc1nnc(-c2ccncc2)o1)c1ccc(C#N)cc1 (stereo unspecified)	13.6 µM	12.7 µM	41.7 µM	–

More lines, in order of falling IC50 (HepG2), values ahead:

IC50 (HepG2)	IC50 (HCT-116 [1])	IC50 (MCF7)	Structure (SMILES)	other results
53.9 µM	19.2 µM	52.3 µM	CCOP(=O)(OCC)C(NNC(=O)CSc1nnc(-c2ccncc2)o1)c1cccc(OC)c1 (stereo unspecified)	–
31 µM	17.3 µM	64.4 µM	CCOP(=O)(OCC)C(NNC(=O)CSc1nnc(-c2ccncc2)o1)c1ccc(Br)cc1 (stereo unspecified)	–
20.3 µM	24.6 µM	61.6 µM	CCOP(=O)(OCC)C(NNC(=O)CSc1nnc(-c2ccncc2)o1)c1cc(OC)ccc1OC (stereo unspecified)	–
18.1 µM	15 µM	58.8 µM	CCOP(=O)(OCC)C(NNC(=O)CSc1nnc(-c2ccncc2)o1)c1ccc([N+](=O)[O-])cc1 (stereo unspecified)	–
13.9 µM	17.1 µM	47.8 µM	CCOP(=O)(OCC)C(NNC(=O)CSc1nnc(-c2ccncc2)o1)c1cccs1 (stereo unspecified)	–
